The values that follow come from patent US7344851B2, “Anticancer agents based on prevention of protein prenylation” (Arizona Biomedical Research Commission, priority 1998, dated 2008).

What all share (type): biochemical
In assay [1] the target is T1, human recombinant FTase (Homo sapiens, UniProt P49354+P49356).
T1 construct: gift from Professor Patrick Casey, Duke University
The assay is described as follows: FTase inactivation, fluorescence assay of farnesylation of Ds-GCVLS after preincubation with inactivator. As to conditions: for inactivation of FTase (result in words): preincubation of FTase with compound, fluorescence assay. On the procedure: For example, the catalytic ability of FTase was monitored by an assay procedure in which FTase transferred the farnesyl group from FPP to a peptide substitute for Ras. The peptide substitute for Ras in this assay had structural elements in common with Ras, in particular a sequence of four amino acids cysteinyl-valyl-lysyl-serine (cys-val-lys-ser).
Inactivation of the enzyme FTase occurred when the FTase was preincubated with phenylglyoxal monohydrate, as evidenced by (1) a decrease in enzyme activity with increasing time of preincubation with phenylglyoxal monohydrate; and (2) a decrease in enzyme activity with increasing concentration of phenylglyoxal monohydrate. Because of interference of phenylglyoxal monohydrate with the fluorescence assay used, phenylglyoxal monohydrate was removed from the FTase preincubation mixture by ultrafiltration prior to the assay being performed.
FTase assay The fluoresence assay conditions were adapted from a published method. The FTase assay consisted of the measurement of the rate of FTase-catalyzed farnesylation of the fluorescent pentapeptide Ds-GCVLS. Upon farnesylation of the cysteine, the fluoresence emission at =505 nm of the dansyl group is enhanced due to the proximity of the hydrophobic isoprenoid group. Enzyme activity (approximately 60 nM FTase) was monitored at saturating substrate concentrations (10 M farnesyl pyrophosphate, ammonium salt, prepared by successive dilutions of a commercial 2.3 mM solution in methanol:10 mM aqueous NH4OH (7:3) into assay buffer, and 1.0 M Ds-GCVLS) by measurement of the increase in fluorescence emission observed at =505 nm as FTase farnesylated Ds-GCVLS for a period of 10 min. The assay buffer was selected for unreactivity toward PGO: 50 mM NaHEPES, 5 mM DTT, 5 mM MgCl2, 10 μM ZnCl2, and 0.2% n-octyl-β-D-glucopyranoside, pH 7.5. Fluorescence emission was measured with a JASCO FP-77 spectrofluorimeter fitted with a temperature-controlled cuvette holder connected to a 30 C. constant temperature bath. All fluoresence assays were conducted in a 4 mm 4 mm quartz cuvette with excitation at 340 nm.
Inactivation of FTase by PGO FTase was incubated at 30 C in the presence and absence of PGO at various concentrations in 50 mM NaHEPES, 5 mM MgCl2, 10 μM ZnCl2, and 0.2% n-octyl-β-D-glucopyranoside, pH 7.5 (i.e., assay buffer without DTT). Periodically, aliquots of the FTase-PGO reaction mixture were removed and assayed for FTase activity. Because of interference of PGO with the fluorometric assay, the aliquot was first subjected to solvent exchange by size exclusion membrane concentration to remove PGO. The solvent exchange utilized Microcon (Millipore Co.) 30 kD molecular weight cutoff microconcentrators. This also served to stop further inactivation of the enzyme by PGO. A 100-L aliquot of FTase-PGO reaction mixture was pipetted into a Microcon concentrator, which was centrifuged at 12,000 RPM for 8 min at 4 C. The concentrate was resuspended in […] of assay buffer, and centrifugation was repeated. The final concentrate was resuspended in 90 L of assay buffer, and the resulting solution was recovered by inversion of the concentrator and centrifugation at 3500 RPM for 3 min at 4 C. The solution was then assayed for FTase activity as described above. A control was handled as above, except that PGO was omitted from the incubation mixture.

The target in assay [2] is T1, human recombinant FTase. The assay is described as above.
Assay [3] addresses T1, human recombinant FTase. The assay is described as follows: FPP protection of FTase against inactivation by PGO. The following applies: FPP at various concentrations 2 min, then 10 mM PGO for 30 min at 30° C.; FIG. 3. The procedure:
FIG. 3. Farnesyl pyrophosphate protection of FTase from inactivation by PGO. Points are determined by 100×(FTase activity after incubation with FPP and PGO)/(FTase activity after incubation with FPP without PGO). Assays were carried out after removal of FPP and PGO with a high molecular weight cutoff microconcentrator. Each point is the average of duplicate determinations.
FPP protection of FTase against inactivation by PGO FTase was treated with FPP at various concentrations in assay buffer without DTT for 2 min at 30° C. prior to incubation of the mixture with 10 mM PGO for 30 min at 30° C. The control was incubated with FPP at the corresponding concentration for the full length of time, but without PGO. The mixtures were subsequently subjected to microconcentration and assay, as described above.

On to `CCCCCCCCCCC(=O)C=O` [2-oxododecanal], for which the “time of incubation until FTase activity was lost” value at human recombinant FTase [1] (35 mM 2-oxododecanal, 5% DMSO, data not shown) is listed as not above 2 min. Also, the “inactivation of FTase (result in words)” value on human recombinant FTase [1] is reported as “rapidly inactivated FTase”.
For the compound `O=CC(=O)c1ccc(-c2ccc(C(=O)C=O)cc2)cc1` [4,4′-biphenyldiglyoxaldehyde], the “FTase activity, % of the initial control value” (shortened to “FTase activity, %”) at human recombinant FTase [2] (23 μM, 30 minutes of incubation, FTase 15 nM, 4.6% DMSO) was found to be 68%; on human recombinant FTase [2] (93 μM, 30 minutes of incubation, FTase 15 nM, 4.6% DMSO), 11%. Also, the “inactivation of FTase (result in words)” value at human recombinant FTase [1] is given as “rapidly inactivated FTase”.
Take `CCCCCCCCCCCCCCCC(=O)OC[C@H](O)[C@H]1OC(=O)C(=O)C1=O` [dehydroascorbic acid 6-palmitate]: the “FTase activity, %” value at human recombinant FTase [2] (7 μM, 30 minutes of incubation, FTase 15 nM, 0.46% DMSO, Microcon step omitted) is 75%; at human recombinant FTase [2] (28 μM, 30 minutes of incubation, FTase 15 nM, 0.46% DMSO, Microcon step omitted), 34%; on human recombinant FTase [2] (141 μM, 30 minutes of incubation, FTase 15 nM, 0.46% DMSO, Microcon step omitted) it was 22%. The “inactivation of FTase (result in words)” value on human recombinant FTase [1] is “rapidly inactivated FTase”.
For `CC(=O)c1ccc(-c2ccc(C(C)=O)cc2)cc1` [4,4′-diacetylbiphenyl, reference compound], the “FTase activity compared with the control” value at human recombinant FTase [2] (23 μM, 120 minutes of incubation, FTase 15 nM, 4.6% DMSO) is on record as “the same as the control”. In addition, on human recombinant FTase [1], the “inactivation of FTase (result in words)” value was “did not inactivated FTase”.
As for `O=CC(=O)c1ccccc1` [PGO, phenylglyoxal monohydrate], the “effect of preincubation of FTase with FPP on inactivation by PGO” value on human recombinant FTase [3] is “decreased the ability of PGO to inactivate FTase”. Moreover, the “rate of inactivation of FTase” value on human recombinant FTase [2] (5 mM PGO, FIG. 2) is “the rate of inactivation was reduced”; on human recombinant FTase [1] (10 mM PGO, compared with 20 mM, FIG. 2), “slower but still quite rapid”. Besides, the “FTase activity following preincubation with inactivator” value on human recombinant FTase [1] (10 mM PGO for 10 min, PGO removed by microconcentrator, FIG. 1) is on record as “virtual absence of enzyme activity”. The “inactivation of FTase (result in words)” value is “rapid and virtually complete inactivation” at human recombinant FTase [1] (listed as phenylglyoxal monohydrate, monohydrate); “rapidly inactivated” at human recombinant FTase [1] (monohydrate).
On to `CC(=O)C(=O)CC(C)CCC=C(C)C` (stereo not shown) [5,9-dimethyl-8-decene-2,3-dione], for which the “FTase activity, %” value at human recombinant FTase [2] (17 μM, 30 minutes of incubation, FTase 15 nM, 4.6% DMSO, Microcon step omitted) is on record as 38%; at human recombinant FTase [2] (68 μM, 30 minutes of incubation, FTase 15 nM, 4.6% DMSO, Microcon step omitted), 18%; at human recombinant FTase [2] (171 μM, 30 minutes of incubation, FTase 15 nM, 4.6% DMSO, Microcon step omitted), 16%. Also, at human recombinant FTase [1], the “inactivation of FTase (result in words)” value is reported as “rapidly inactivated FTase”.
In the case of `CCC(=O)C(C)=O` [2,3-pentanedione], the “FTase activity, %” value at human recombinant FTase [2] (17 mM, approximately 30 minutes of incubation, 50 mM sodium borate, pH 7.5, FTase 15 nM, Microcon step omitted) was 69%; at human recombinant FTase [2] (33 mM, approximately 30 minutes of incubation, 50 mM sodium borate, pH 7.5, FTase 15 nM, Microcon step omitted) it was 55%; on human recombinant FTase [2] (66 mM, approximately 30 minutes of incubation, 50 mM sodium borate, pH 7.5, FTase 15 nM, Microcon step omitted), 37%. Further, at human recombinant FTase [1], the “inactivation of FTase (result in words)” value is listed as “rapidly inactivated FTase”.
